Measurements published in patent US11833187B2, “Materials and methods for extracellular vessicle-associated diseases” (THE BRIGHAM AND WOMEN'S HOSPITAL, INC., priority 2017, dated 2023).
Entries after “also recorded” stand apart in the source; their conditions may differ. Peptide text beside a SMILES is read from it. * marks the point of attachment. Cbz = O=C(OCc1ccccc1)*

How the values were obtained:
FLAG-sortilin [1] = target: T1, FLAG-sortilin (Homo sapiens, UniProt Q99523); experiment: Non-reducing western blotting of sortilin dimerization in FLAG-sortilin HEK293 cells; type: cell-based; conditions: for dimerization of sortilin in the cells: FLAG-sortilin HEK293 cells, propeptide 100 nmol/L, 24 hours, n=2; for sortilin homodimers of low molecular weight in the cells: HEK293 cells stably overexpressing FLAG-sortilin, 24-h incubation, n=3
T1 construct: pcDNA3.1(+) FLAG-sortilin full-length (Full), amino acids (aa) 1-831; expressed in transfected cells; cells and their extracellular vesicles
T1 sequence (Q99523 78-831): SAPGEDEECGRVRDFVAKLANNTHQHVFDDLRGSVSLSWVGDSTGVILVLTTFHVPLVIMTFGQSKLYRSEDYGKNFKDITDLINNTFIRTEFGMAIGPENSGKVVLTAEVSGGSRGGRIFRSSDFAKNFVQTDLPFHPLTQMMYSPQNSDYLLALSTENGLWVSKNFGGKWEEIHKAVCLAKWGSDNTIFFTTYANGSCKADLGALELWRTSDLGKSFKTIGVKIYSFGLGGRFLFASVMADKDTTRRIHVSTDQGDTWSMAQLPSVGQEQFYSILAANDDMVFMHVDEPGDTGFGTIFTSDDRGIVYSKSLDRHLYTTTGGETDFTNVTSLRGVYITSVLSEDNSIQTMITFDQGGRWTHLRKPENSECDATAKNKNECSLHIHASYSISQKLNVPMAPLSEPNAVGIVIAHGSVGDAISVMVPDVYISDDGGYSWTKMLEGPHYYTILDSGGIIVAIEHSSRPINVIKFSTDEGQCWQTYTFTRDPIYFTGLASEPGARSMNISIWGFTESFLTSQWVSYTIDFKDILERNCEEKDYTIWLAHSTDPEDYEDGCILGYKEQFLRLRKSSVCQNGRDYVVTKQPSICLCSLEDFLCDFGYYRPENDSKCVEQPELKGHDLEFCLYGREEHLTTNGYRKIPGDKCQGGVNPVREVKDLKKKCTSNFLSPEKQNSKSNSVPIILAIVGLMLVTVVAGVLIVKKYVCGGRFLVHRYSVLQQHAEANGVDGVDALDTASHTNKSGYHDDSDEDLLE
Procedure: (§1) Cells, EVs and the supernatant of culture medium were lysed with IP lysis buffer (Thermo Fisher Scientific Inc., Cat #87787) containing protease inhibitor (Roche Diagnostics, Cat #04693159001). Protein concentration was measured using the bicinchoninic acid (BCA) method (Thermo Fisher Scientific Inc., Cat #23225). Laemmli buffer (Boston Bioproduct; non-reducing, Cat #BP-110NR; reducing, Cat #BP-111R) was added to the lysate, and boiled at 95° C. for 5 minutes. Total protein was separated by 4-12% SDS-PAGE and transferred to polyvinylidene difluoride (PVDF) membrane using iBlot Western blotting system (Life Technologies) or conventional wet method. Primary antibodies against human sortilin ICD (rabbit 1:1000; Abcam plc., Cat #ab16640, Lot #GR185198-1), human (3-actin (mouse 1:2000; Novus Biologicals, LLC, Cat #NB600-501, Lot #014M4759), FLAG (rabbit 1:1000; Sigma, Cat #F4725, Lot #093M4798, mouse (M2) 1:1000; Sigma, Cat #F1804, Lot #SLBJ4607V), 6×His (mouse 1:1000; Abcam plc., Cat #ab18184, Lot #GR247674-1).
(§2) HEK293 cells were purchased from American Type Culture Collection (ATCC) and maintained in Eagle's minimum essential medium (EMEM, ATCC, Cat #30-2003) supplemented with 10% fetal bovine serum (FBS), penicillin (100 U/mL), and streptomycin (100 μg/mL) at 37° C. in a humidified atmosphere of 5% CO2. For transfection in HEK293 cells, Lipofectamine 2000 reagent (Thermo Fisher Scientific Inc., Cat #11668019) was used, according to the manufacturer's protocol. HEK293 cells stably expressing FLAG-sortilin Full, ECD+TMD, ICD+TMD and sortilin-3×FLAG were obtained by transfection with pcDNA3.1(+) FLAG-sortilin Full, pcDNA3.1(+) FLAG-sortilin-ECD+TMD, pcDNA3.1(+) FLAG-sortilin ICD+TMD, and expression vector of sortilin-3×FLAG (GeneCopoeia, Inc., Cat # EX-M0397-M14), respectively. These cell lines were maintained in EMEM supplemented with 10% FBS, penicillin/streptomycin, and geneticin 800 μg/mL. Cells were incubated in the incubator with MG-132 and chloroquine during the indicated time, and with 2-FPA and sortilin propeptide for 24 hours, respectively.

FLAG-sortilin [2] = target: T1, FLAG-sortilin; experiment: Non-reducing western blotting of sortilin dimerization in extracellular vesicles of FLAG-sortilin HEK293 cells; type: cell-based; conditions: for dimerization of sortilin in the extracellular vesicles: EVs of FLAG-sortilin HEK293 cells, propeptide 100 nmol/L, 24 hours, n=2; for sortilin homodimers (dimerization) in the extracellular vesicles: EVs of HEK293 cells stably overexpressing FLAG-sortilin, 24-h incubation, n=3
Procedure: as §1, §2
Separation of culture medium to supernatant and EVs was performed according to the protocol previously reported (41). Culture medium underwent centrifugation at 1,000 rpm for 5 minutes to remove cell debris. Then, the supernatant and EVs were separated by ultracentrifugation at 100,000 g for 40 minutes at 4° C. (Optima Max Ultracentrifuge, Beckman Coulter).

FLAG-sortilin ICD+TMD = experiment: Reducing western blotting of FLAG-sortilin ICD+TMD protein expression in stably overexpressing HEK293 cells; type: cell-based, human; conditions: for protein expression of FLAG-sortilin ICD+TMD: MG-132 20 μmol/L or chloroquine 10 μmol/L for 7 hours, n=3
Procedure: as §1, §2

[3] = listed as palmitoylation inhibitor

sortilin-derived propeptide: Sortilin propeptide (SEQ ID NO: 2), purchased from Phoenix Pharmaceuticals; the claimed inhibitor of sortilin dimerization (QDRLDAPPPPAAPLPRWSGPIGVSWGLRAAAAGGAFPRGGRWRR; listed as Homo sapiens)
dimerization of sortilin in the cells (FLAG-sortilin [1]): did not affect dimerization in the cells | dimerization of sortilin in the cells (FLAG-sortilin [1]; listed as propeptide): a decrease in the cells was not observed | sortilin dimerization (formation of homodimers), compartment not given (FLAG-sortilin [1]; HEK293 cell line, propeptide treatment, summary statement): reduced them; also recorded: sortilin dimerization was decreased | dimerization of sortilin in the extracellular vesicles (FLAG-sortilin [2]): decreased sortilin homodimers within EVs; also recorded: decreases sortilin homodimers in EVs; also recorded: decreased dimerization in the extracellular vesicles | dimerization of sortilin in the extracellular vesicles (FLAG-sortilin [2]; listed as propeptide): decreased dimerization of sortilin in the extracellular vesicles

CC(C)C[C@@H](C=O)NC(=O)[C@H](CC(C)C)NC(=O)[C@H](CC(C)C)NC(=O)OCc1ccccc1 [MG-132] (Cbz-Leu-Leu-Leu-aldehyde)
protein expression of FLAG-sortilin ICD+TMD (FLAG-sortilin ICD+TMD): increased the protein expression of FLAG-sortilin ICD+TMD | protein expression of FLAG-sortilin ICD+TMD, time and concentration dependence (FLAG-sortilin ICD+TMD; MG-132 2-20 μmol/L for 7 or 24 hours): increased protein expression of FLAG-sortilin ICD+TMD in a time- and concentration-dependent manner

CCCCCCCCCCCCCCC(F)C(=O)O (stereo not drawn) [2-FPA, 2-fluoropalmitic acid]
sortilin homodimers of low molecular weight in the cells (FLAG-sortilin [1]): increased only homodimers of lower molecular size in the cells; also recorded: increased sortilin homodimers of low molecular weight | sortilin homodimers of low molecular weight in the cells (FLAG-sortilin [1]; [3]): increased sortilin dimerization | sortilin homodimers (dimerization) in the extracellular vesicles (FLAG-sortilin [2]): increased dimerization of FLAG-sortilin in the EVs; also recorded: increased sortilin homodimers of low molecular weight | sortilin homodimers (dimerization) in the extracellular vesicles (FLAG-sortilin [2]; [3]): increased transport of dimerized sortilin to EVs

Chloroquine diphosphate salt
protein expression of FLAG-sortilin ICD+TMD (FLAG-sortilin ICD+TMD): did not
